Patent US8389512B2 (priority 2008, dated 2013)

Legend:
[1] = 4 hr in-vivo study: meloxicam plasma concentration after oral delivery to rats; conditions: rat
Text: Male Sprague-Dawley rats, 250-300 g, received with a surgically implanted jugular catheter in place from (Harlan or Taconic Laboratories, USA). Animals were housed one per polycarbonate cage utilizing individual cage cards, with free access to food and water in accordance with NIH guidelines. Animals were quarantined at least 24 hrs after arrival prior to use and patency of the implanted catheter determined on the day of the test. Environmental controls for the animal room were set to maintain 18 to 26° C., a relative humidity of 30 to 70%, a minimum of 10 air changes/hour, and a 12-hour light/12-hour dark cycle. […] Each rat was weighed and the dose volume adjusted accordingly so that the effect of weight variability on results of study was eliminated and that each rat received 1 mg/kg dose.
Briefly, using a gradient elution with a Waters Symmetry C18 column (Waters Inc. USA), LCMS with selective reaction monitoring, protein precipitation of the plasma sample using acetonitrile where an LOQ of 50 ng/ml was achieved. Pharmacokinetic parameters were calculated from individual animal samples using appropriate software (PK Solutions 2.0, Summit Research Services, Montrose, Calif., USA).

[2] = 24 hr in-vivo study: meloxicam plasma concentration and pharmacokinetics after oral (gavage) administration to male rats; conditions: male rats, 1 mg/kg oral; for AUC (area under the plasma concentration-time curve at 24 h) / Cmax (peak plasma concentration) / F (bioavailability): mean N = 5; for Time to Reach 0.59 μg/ml: calculated by interpolation of time vs. concentration data
Text: Male Sprague-Dawley rats, 250-300 g, received with a surgically implanted jugular catheter in place from (Harlan or Taconic Laboratories, USA). Animals were housed one per polycarbonate cage utilizing individual cage cards, with free access to food and water in accordance with NIH guidelines. Animals were quarantined at least 24 hrs after arrival prior to use and patency of the implanted catheter determined on the day of the test. Environmental controls for the animal room were set to maintain 18 to 26° C., a relative humidity of 30 to 70%, a minimum of 10 air changes/hour, and a 12-hour light/12-hour dark cycle. Rats historically have been used in safety evaluation and PK screening studies and are recommended by appropriate regulatory agencies. […] Each rat was weighed and the dose volume adjusted accordingly so that the effect of weight variability on results of study was eliminated and that each rat received 1 mg/kg dose.
Pharmacokinetic parameters were calculated from individual animal samples using appropriate software (PK Solutions 2.0, Summit Research Services, Montrose, Calif., USA).

SMILES	meloxicam plasma concentration ([1]; time 0 min) [µg/mL]	meloxicam plasma concentration ([1]; time 15 min)	meloxicam plasma concentration ([1]; time 30 min) [µg/mL]	meloxicam plasma concentration ([1]; time 45 min) [µg/mL]	meloxicam plasma concentration ([1]; time 60 min) [µg/mL]	meloxicam plasma concentration ([1]; time 120 min) [µg/mL]	meloxicam plasma concentration ([1]; time 240 min) [µg/mL]	meloxicam plasma concentration ([2]; N = 5, 0.25 hour) [µg/mL]	meloxicam plasma concentration ([2]; N = 5, 0.5 hour) [µg/mL]	AUC (area under the plasma concentration-time curve at 24 h) [2] [ng·h/mL]	Cmax (peak plasma concentration) [2] [ng/mL]	F (bioavailability) [2] [%]	Time to Reach 0.59 μg/ml [2] [min]	meloxicam plasma concentration ([1]; time 15 min, listed as 87) [µg/mL]	meloxicam plasma concentration ([1]; time 30 min, listed as 87) [µg/mL]	meloxicam plasma concentration ([1]; time 45 min, listed as 87) [µg/mL]	meloxicam plasma concentration ([1]; time 60 min, listed as 87) [µg/mL]	meloxicam plasma concentration ([1]; time 120 min, listed as 87) [µg/mL]	meloxicam plasma concentration ([1]; time 240 min, listed as 87) [µg/mL]
Cc1cnc(NC(=O)C2=C(O)c3ccccc3S(=O)(=O)N2C)s1.O=C(O)/C=C\C(=O)O [Cocrystal 21, Meloxicam:Maleic Acid Cocrystal (1:1)]	0.3	19.77 µg/mL	26.13	31.19	32.84	35.02	42.12	0.62	0.72	25300	1490	39.8	13.4	–	–	–	–	–	–
Cc1cnc(NC(=O)C2=C(O)c3ccccc3S(=O)(=O)N2C)s1.O=C(O)CC(=O)O [Cocrystal 22, Meloxicam:Malonic Acid Cocrystal (1:1)]	0	7.51 µg/mL	22.15	27.00	29.33	29.57	–	–	–	–	–	–	–	–	–	–	–	–	–
Cc1cnc(NC(=O)C2=C(O)c3ccccc3S(=O)(=O)N2C)s1.O=C(O)CO [Cocrystal 28, Meloxicam:Glycolic Acid Cocrystal (1:1)]	0	6.25 µg/mL	16.88	22.66	27.26	20.77	34.50	–	–	–	–	–	–	–	–	–	–	–	–
Cc1cnc(NC(=O)C2=C(O)c3ccccc3S(=O)(=O)N2C)s1.Cc1cnc(NC(=O)C2=C(O)c3ccccc3S(=O)(=O)N2C)s1.O=C(O)C[C@H](O)C(=O)O [Cocrystal 71, Meloxicam: L-Malic Acid Cocrystal (2:1)]	0	24.98 µg/mL	32.05	30.38	30.95	–	38.59	–	–	–	–	–	–	–	–	–	–	–	–
Cc1cnc(NC(=O)C2=C(O)c3ccccc3S(=O)(=O)N2C)s1.O=C(O)c1ccc2ccccc2c1O [Cocrystal 76, Meloxicam: 1-Hydroxy-2-Naphthoic Acid Cocrystal (1:1)]	0	–	39.24	45.29	44.60	46.24	52.24	2.1	2.49	62500	4150	98.3	6.5	–	–	–	–	–	–
Cc1cnc(NC(=O)C2=C(O)c3ccccc3S(=O)(=O)N2C)s1.O=C(O)c1ccccc1O [Cocrystal 87, Meloxicam:Salicylic Acid Cocrystal Form I (1:1)]	0	–	–	–	–	–	–	–	–	–	–	–	–	23.61	26.76	28.85	26.79	34.16	36.54
Cc1cnc(NC(=O)C2=C(O)c3ccccc3S(=O)(=O)N2C)s1.O=C(O)c1ccccc1O [Cocrystal 88, Meloxicam:Salicylic Acid Cocrystal Form III (1:1)]	–	42.10 µg/mL	38.19	40.48	41.18	40.50	49.13	0.7675	0.8975	29600	2230	46.5	11.3	–	–	–	–	–	–
Cc1cnc(NC(=O)C2=C(O)c3ccccc3S(=O)(=O)N2C)s1.O=C(O)CCCC(=O)O [Cocrystal 92, Meloxicam:Glutaric Acid Cocrystal (1:1)]	0	5.61 µg/mL	13.16	19.11	27.72	35.94	55.35	–	–	–	–	–	–	–	–	–	–	–	–
Cc1cnc(NC(=O)C2=C(O)c3ccccc3S(=O)(=O)N2C)s1.Cc1cnc(NC(=O)C2=C(O)c3ccccc3S(=O)(=O)N2C)s1.O=C(O)/C=C/C(=O)O [Cocrystal 143, Meloxicam:Fumaric Acid Cocrystal (2:1)]	0	3.33 µg/mL	6.69	9.69	13.39	20.93	30.23	–	–	–	–	–	–	–	–	–	–	–	–
Cc1cnc(NC(=O)C2=C(O)c3ccccc3S(=O)(=O)N2C)s1.Cc1cnc(NC(=O)C2=C(O)c3ccccc3S(=O)(=O)N2C)s1.O=C(O)CCC(=O)O [Cocrystal 144, Meloxicam:Succinic Acid Cocrystal (2:1)]	0	13.76 µg/mL	–	32.54	38.13	44.02	43.47	0.23	–	28400	1780	44.7	45.1	–	–	–	–	–	–
Cc1cnc(NC(=O)C2=C(O)c3ccccc3S(=O)(=O)N2C)s1.Cc1cnc(NC(=O)C2=C(O)c3ccccc3S(=O)(=O)N2C)s1.O=C(O)CCCCC(=O)O [Cocrystal 152, Meloxicam:Adipic Acid Cocrystal (2:1)]	0	9.72. μg/ml	22.85	28.37	30.09	38.23	47.85	–	–	–	–	–	–	–	–	–	–	–	–
Cc1cnc(NC(=O)C2=C(O)c3ccccc3S(=O)(=O)N2C)s1.O=C(O)c1ccccc1 [Cocrystal 153, Meloxicam:Benzoic Acid Cocrystal (1:1)]	0	21.94 µg/mL	25.88	28.30	28.11	33.31	42.51	–	–	–	–	–	–	–	–	–	–	–	–
Cc1cnc(NC(=O)C2=C(O)c3ccccc3S(=O)(=O)N2C)s1.Cc1cnc(NC(=O)C2=C(O)c3ccccc3S(=O)(=O)N2C)s1.O=C(O)CC(O)C(=O)O [Cocrystal 154, Meloxicam:DL-Malic Acid Cocrystal (2:1)]	0	11.19 µg/mL	16.59	21.96	24.90	32.31	49.72	–	–	–	–	–	–	–	–	–	–	–	–
Cc1cnc(NC(=O)C2=C(O)c3ccccc3S(=O)(=O)N2C)s1.O=C(O)CCc1ccccc1 [Cocrystal 164, Meloxicam:Hydrocinnamic Acid Cocrystal (1:1)]	0	9.53 µg/mL	11.42	16.19	18.24	25.918	45.70	–	–	–	–	–	–	–	–	–	–	–	–
